Reference: US20160215305A1, “Process of Fermenting A Lignocellulosic Biomass” (priority 2015, published 2016)
Values joined by “and” are separate entries in the source; they are usually repeats but may differ in a detail not shown here. Identical values can stand only once.

System: S. cerevisiae
Assay: Batch fermentation of amino acid detoxified loblolly pine hydrolysates by Baker yeast
Type: cell-based, Saccharomyces cerevisiae
Conditions: pH 6.0, 60° C.; for CEtOH, ethanol final concentration at 48 h / CHMF, percentage of HMF consumed at 48 h / QEtOH, volumetric ethanol productivity in the first 6 h / RG, glucose consumption rate in the first 6 h / RM, mannose consumption rate in the first 6 h / YEtOH, ethanol yield from total glucose and mannose at 48 h: hydrolysates detoxified with amino acid 0.2% w/v, 2 hours
Excerpt: Loblolly pine (Pinus taeda) wood chips (1.0×1.0 cm, L×W) were collected by Forest Products Laboratory at Auburn University, located in Auburn, Ala. Dilute acid pretreatment was used to produce biomass hydrolysates in a 4.0 L Parr batch reactor (Parr Instrument Co., Moline, Ill.) as previously described (Lai, C. H., Tu, M. B., Li, M., Yu, S. Y. 2014. Remarkable solvent and extractable lignin effects on enzymatic digestibility of organosolv pretreated hardwood. Bioresource Technology, 156, 92-98). Briefly, wood chips (400 grams, dry weight) were soaked in 1% (w/w) sulfuric acid overnight (7:1 liquor/solid ratio) prior to the pretreatment, and then loaded into a reactor and treated at 170° C. for 60 minutes.
To achieve higher ethanol titer in fermentation, loblolly pine hydrolysates were concentrated to approximately one-third of its original volume using a rotary evaporator (IKA RV10 basic) at 40° C. and 60 rotations per minute (rpm). The hydrolysates were first adjusted to pH 4.0 before evaporation. After the concentration, the sugar contents of the hydrolysates were analyzed by HPLC.
[…] The detoxification experiments were performed in a 250 mL flask and placed in a temperature-controlled water batch.
Baker yeast (Fleischmann's), S. cerevisiae, was used for all the fermentation experiments in this study. The yeast was maintained on YDP medium containing (g/L): 20 glucose, 20 peptone, 10 yeast extract and 20 agar. Isolated colony was grown in YDP liquid medium overnight and harvested as fermentation inoculum. The yeast concentration was measured using an UV-vis spectrophotometer. Inoculum of 2.0 g/L was used for all fermentation experiments.
Batch fermentation was carried out in 125 mL serum bottles containing 50 mL broths (untreated or detoxified hydrolysates, untreated or detoxified cinnamaldehyde sugar solution) without any additional nutrient supplement. All the fermentation broths were adjusted to pH 6 with NaOH or H2SO4 and sterilized by passing 0.2 μm sterile filters. After inoculation, the serum bottle was sealed with rubber stopper and aluminum seal, and equipped with cannulas for CO2 release. All fermentation experiments were incubated at 30° C., spun at 150 rpm in a shaker (E24, New Brunswick Scientific). Aliquots of samples were withdrawn at 0, 1, 3, 6, 9, 12, 24, 36 and 48 hours for the time course analysis of both starting material and products. Fermentation was carried out in duplicate. The volumetric ethanol productivity and initial consumption rate of glucose (RG) and mannose (RM) was calculated based on the sugar consumed in the first 6 h of fermentation as described previously (Cao, D. X., Tu, M. B., Xie, R., Li, J., Wu, Y. N., Adhikari, S. 2014. Inhibitory Activity of Carbonyl Compounds on Alcoholic Fermentation by Saccharomyces cerevisiae. Journal of Agricultural and Food Chemistry, 62(4), 918-926).
Ethanol, acetic acid, levulinic acid, formic acid, furfural and HMF were analyzed using an Aminex HPX-87H column (300×7.8 mm) with a refractive index detector. The elution conditions were column temperature of 45° C. and flow rate of 0.6 ml/min with 5.0 mM H2SO4 as the mobile phase in a 60 min isocratic run.

SMILES	CEtOH, ethanol final concentration at 48 h	CHMF, percentage of HMF consumed at 48 h	QEtOH, volumetric ethanol productivity in the first 6 h	RG, glucose consumption rate in the first 6 h	RM, mannose consumption rate in the first 6 h	YEtOH, ethanol yield from total glucose and mannose at 48 h	other results
C[C@H](N)C(=O)O [Alanine, alanine]	2.14 ± 0.01 g/L	11.03 ± 1.64%	0.28 ± 0.00 g/L/h	0.21 ± 0.02 g/L/h	0.44 ± 0.07 g/L/h	0.04 ± 0.00 g/g	–
N=C(N)NCCC[C@H](N)C(=O)O [Arginine, arginine]	2.62 ± 0.03 g/L	12.69 ± 0.27%	0.34 ± 0.01 g/L/h	0.29 ± 0.02 g/L/h	0.59 ± 0.07 g/L/h	0.05 ± 0.00 g/g	–
NC(=O)C[C@H](N)C(=O)O [Asparagine, asparagine]	11.18 ± 0.15 g/L	–	0.58 ± 0.01 g/L/h	0.65 ± 0.01 g/L/h	0.87 ± 0.10 g/L/h	–	CEtOH, ethanol final concentration at 48 h (listed as asparagine): 11.18 g/L; RG, glucose consumption rate in the first 6 h (listed as asparagine): 0.65 g/L/h; RM, mannose consumption rate in the first 6 h (listed as asparagine): 0.87 g/L/h
N[C@@H](CC(=O)O)C(=O)O [Aspartate, aspartate]	3.86 ± 0.18 g/L	16.27 ± 0.30%	0.47 ± 0.00 g/L/h	0.43 ± 0.02 g/L/h	0.90 ± 0.01 g/L/h	0.07 ± 0.00 g/g	–
N[C@@H](CCC(=O)O)C(=O)O [Glutamate, glutamate]	3.63 ± 0.23 g/L	15.40 ± 0.72%	0.41 ± 0.01 g/L/h	0.34 ± 0.02 g/L/h	0.56 ± 0.03 g/L/h	0.07 ± 0.00 g/g	–
NC(=O)CC[C@H](N)C(=O)O [Glutamine, glutamine]	3.52 ± 0.06 g/L	13.38 ± 0.99%	0.40 ± 0.00 g/L/h	0.38 ± 0.02 g/L/h	0.73 ± 0.01 g/L/h	0.06 ± 0.01 g/g	–
N[C@@H](Cc1c[nH]cn1)C(=O)O [Histidine, histidine]	23.07 ± 0.35 g/L	–	0.78 ± 0.00 g/L/h	0.94 ± 0.00 g/L/h	1.02 ± 0.01 g/L/h	0.42 ± 0.01 g/g	CEtOH, ethanol final concentration at 48 h (listed as histidine): 23.07 g/L; RG, glucose consumption rate in the first 6 h (listed as histidine): 0.94 g/L/h; RM, mannose consumption rate in the first 6 h (listed as histidine): 1.02 g/L/h; YEtOH, ethanol yield from total glucose and mannose at 48 h (listed as histidine): 0.42 g/g; sugar consumption rate (glucose and mannose) less than those from cysteine detoxification (2 hours detoxification): 50%
CC[C@H](C)[C@H](N)C(=O)O [Isoleucine, isoleucine]	5.03 ± 1.46 g/L	17.36 ± 3.50%	0.44 ± 0.08 g/L/h	0.37 ± 0.02 g/L/h	0.66 ± 0.06 g/L/h	0.09 ± 0.03 g/g	–
CC(C)C[C@H](N)C(=O)O [Leucine, leucine]	2.83 ± 0.19 g/L	12.84 ± 1.32%	0.34 ± 0.01 g/L/h	0.27 ± 0.04 g/L/h	0.64 ± 0.12 g/L/h	0.05 ± 0.00 g/g	–
NCCCC[C@H](N)C(=O)O [Lysine, lysine]	14.40 ± 0.57 g/L	–	0.72 ± 0.01 g/L/h	0.80 ± 0.06 g/L/h	1.09 ± 0.13 g/L/h	–	CEtOH, ethanol final concentration at 48 h (listed as lysine): 14.40 g/L; RG, glucose consumption rate in the first 6 h (listed as lysine): 0.80 g/L/h; RM, mannose consumption rate in the first 6 h (listed as lysine): 1.09 g/L/h
CSCC[C@H](N)C(=O)O [Methionine, methionine]	3.11 ± 0.02 g/L	12.78 ± 0.10%	0.31 ± 0.00 g/L/h	0.27 ± 0.01 g/L/h	0.63 ± 0.02 g/L/h	0.06 ± 0.00 g/g	–
N[C@@H](Cc1ccccc1)C(=O)O [Phenylalanine, phenylalanine]	1.87 ± 0.02 g/L	12.69 ± 1.12%	0.28 ± 0.00 g/L/h	0.24 ± 0.01 g/L/h	0.56 ± 0.01 g/L/h	0.03 ± 0.00 g/g	–
O=C(O)[C@@H]1CCCN1 [Proline, proline]	3.12 ± 0.13 g/L	13.35 ± 1.05%	0.33 ± 0.00 g/L/h	0.27 ± 0.05 g/L/h	0.67 ± 0.18 g/L/h	0.06 ± 0.00 g/g	–
N[C@@H](CO)C(=O)O [Serine, serine]	3.87 ± 0.08 g/L	15.66 ± 0.11%	0.45 ± 0.00 g/L/h	0.38 ± 0.00 g/L/h	0.65 ± 0.13 g/L/h	0.07 ± 0.00 g/g	–
C[C@@H](O)[C@H](N)C(=O)O [Threonine, threonine]	3.96 ± 0.13 g/L	16.19 ± 0.87%	0.41 ± 0.01 g/L/h	0.36 ± 0.02 g/L/h	0.67 ± 0.03 g/L/h	0.07 ± 0.00 g/g	–
N[C@@H](Cc1c[nH]c2ccccc12)C(=O)O [Tryptophan, tryptophan]	11.59 ± 0.25 g/L	–	0.63 ± 0.01 g/L/h	0.69 g/L/h and 0.69 ± 0.00 g/L/h	0.89 g/L/h and 0.89 ± 0.04 g/L/h	–	CEtOH, ethanol final concentration at 48 h (listed as tryptophan): 11.59 g/L
N[C@@H](Cc1ccc(O)cc1)C(=O)O [Tyrosine, tyrosine]	2.16 ± 0.25 g/L	12.17 ± 0.92%	0.30 ± 0.02 g/L/h	0.25 ± 0.02 g/L/h	0.59 ± 0.05 g/L/h	0.04 ± 0.00 g/g	–
CC(C)[C@H](N)C(=O)O [Valine, valine]	2.69 ± 0.18 g/L	12.66 ± 1.50%	0.32 ± 0.00 g/L/h	0.25 ± 0.00 g/L/h	0.49 ± 0.03 g/L/h	0.05 ± 0.00 g/g	–
